These are literature values, as cited in patent publication US10946075B1 (priority 2014, dated 2021).

In data set [1] the test system is cells.
Data set [2] relates to polyamine biosynthesis.
For data set [3] the following is noted: in vivo.
The subject of data set [4] is dogs. The note with it: dog, in vivo.
The test system of data set [5] is hamster ovary cells.
Data set [6] concerns rat gamete. The note with it: in vivo.
The test system of data set [7] is thyroid gland. The conditions noted are these: rat, in vivo.
Data set [8] concerns humans. The conditions noted are these: human.
For data set [9] the following is noted: in vivo. The source holds these as a separate data set.
Data set [10] deals with mice. The note with it: mouse, in vivo.
In data set [11] the test system is dogs. The note with it: dog, in vivo. This is another data set of the same source.
Data set [12] relates to murine neuroblastoma. The conditions noted are these: mouse, in vivo.
For data set [13], the system named is mice. The note with it: mouse, in vivo, 16 mg/kg.
Data set [14] has as its system bystander effect cells.
The test system of data set [15] is rats. The conditions noted are these: rat, in vivo.

With `NCCC[C@](N)(C(=O)O)C(F)F` [DFMO, alpha-difluoromethylornithine], the radiation-induced cell death in [1] is on record as 50-60 % of control. Moreover, in data set [2], the “putrescine and spermidine levels” value is on record as “nondetectable levels”; the spermine decrease was 50%. Vitamin E: the white cell count result in [3] was “doubled”. `O=C1O[C@H]([C@@H](O)CO)C(O)=C1O` [vitamin C, Ascorbic Acid]: the “reduction of mortality rate” value in [4] is recorded as 50%. For the same molecule, the protection over control entry in data set [5] was “seven-fold”. Besides, in [6], the “increase of gamete survival vs. controls (factor)” value is recorded as 2.2. For `[I-].[K+]` [KI, Potassium iodide], the “131I- excreted in urine” value in data set [7] was 30%. For the same molecule, in data set [8], the “approximate LD50 in humans” value is recorded as about 500 mg/kg. With `CC1=C(/C=C/C(C)=C/C=C/C(C)=C/C=C/C=C(C)/C=C/C=C(C)/C=C/C2=C(C)CCCC2(C)C)C(C)(C)CCC1` [Beta Carotene], the survival in [9] is recorded as 80%. Consider `Cc1cc2nc3c(=O)[nH]c(=O)nc-3n(C[C@H](O)[C@H](O)[C@H](O)CO)c2cc1C` [riboflavin], for which the “mortality and DNA damages” value in [10] was “higher mortality rates and more DNA damages”. Turning to `O=C([O-])CC(O)(CC(=O)[O-])C(=O)[O-].[Na+].[Na+].[Na+]` [sodium citrate], the treated dogs survived in data set [11] is listed as 100%. Regarding `O=C(O)CCCCC1CCSS1` (stereo not drawn) [Alpha lipoic acid, Alpha Lipoic Acid], the survival rate result in [12] is given as “about 10%”. In addition, the “number of surviving animals” value in [13] was “doubled”.

For `C[S+](C)[O-]` [DMSO, Dimethylsulfoxide], the “induction of micronuclei by bystander effect cells” value in [14] is “completely suppressed”.

B1: papain (protein, UniProt P00784 134-345, looked up)
Papain: IPEYVDWRQKGAVTPVKNQGSCGSCWAFSAVVTIEGIIKIRTGNLNEYSEQELLDCDRRSYGCNGGYPWSALQLVAQYGIHYRNTYPYEGVQRYCRSREKGPYAAKTDGVRQVQPYNEGALLYSIANQPVSVVLEAAGKDFQLYRGGIFVGPCGNKVDHAVAAVGYGPNYILIKNSWGTGWGENGYIRIKRGTGNSYGVCGLYTSSFYPVKN
Take B1: in data set [15], the survival is given as 50%.
